# What was measured:
# GEcR/usp [1] = biological target: T1, GEcR/usp (UniProt P04150+P34021, C431Y/E427R/G434N/G439E/K419E/P331L/P416R/S425G/S440G/V435A/V443G); experiment: Cotransfection CAT reporter assay with GEcR (GR N-terminal domain fused to EcR) and usp in CV1 cells; assay type: cell-based, Drosophila; details: CV1 cells transfected with GEcR alone
# T1 construct: expressed in transfected cells; host or cells: CV1 monkey kidney cells
# T1 sequence (P04150+P34021 with tags, fused parts or gaps P04150:P416R/P04150:K419E/P04150:S425G/P04150:E427R/P04150:C431Y/P04150:G434N/P04150:V435A/P04150:G439E/P04150:S440G/P04150:V443G/P34021:P331L): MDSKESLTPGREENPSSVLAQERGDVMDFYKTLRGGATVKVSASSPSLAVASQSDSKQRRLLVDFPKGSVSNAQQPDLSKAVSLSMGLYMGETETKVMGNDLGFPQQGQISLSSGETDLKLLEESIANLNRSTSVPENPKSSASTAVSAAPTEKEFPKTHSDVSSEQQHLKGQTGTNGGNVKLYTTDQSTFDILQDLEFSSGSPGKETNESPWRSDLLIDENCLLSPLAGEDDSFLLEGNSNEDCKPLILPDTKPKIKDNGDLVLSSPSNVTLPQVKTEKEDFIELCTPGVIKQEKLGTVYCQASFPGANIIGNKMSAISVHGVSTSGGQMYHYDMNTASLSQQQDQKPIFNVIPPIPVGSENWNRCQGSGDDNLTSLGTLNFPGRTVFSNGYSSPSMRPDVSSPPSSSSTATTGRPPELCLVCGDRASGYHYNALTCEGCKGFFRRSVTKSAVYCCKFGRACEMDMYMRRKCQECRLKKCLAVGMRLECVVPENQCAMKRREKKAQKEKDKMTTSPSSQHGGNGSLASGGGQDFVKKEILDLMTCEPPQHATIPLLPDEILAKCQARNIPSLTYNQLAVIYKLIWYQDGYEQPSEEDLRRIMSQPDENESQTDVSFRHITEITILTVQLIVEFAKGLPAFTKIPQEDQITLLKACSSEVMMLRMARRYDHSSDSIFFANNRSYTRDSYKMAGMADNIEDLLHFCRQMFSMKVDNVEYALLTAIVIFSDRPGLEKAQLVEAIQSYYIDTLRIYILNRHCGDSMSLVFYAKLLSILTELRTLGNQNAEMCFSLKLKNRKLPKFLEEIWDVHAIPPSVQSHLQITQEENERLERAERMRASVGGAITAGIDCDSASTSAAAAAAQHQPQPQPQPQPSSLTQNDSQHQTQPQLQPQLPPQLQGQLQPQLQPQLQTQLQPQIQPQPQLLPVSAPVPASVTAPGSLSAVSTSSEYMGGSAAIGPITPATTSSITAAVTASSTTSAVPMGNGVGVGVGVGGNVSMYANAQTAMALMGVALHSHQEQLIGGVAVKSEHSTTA
# Excerpt: (§1) GEcR was constructed by ligation of a NotI/BamHI fragment containing the DNA and hormone binding domains of a modified EcR cDNA, EcRnx, in place of the DNA and hormone binding domains of the similarly modified glucocorticoid receptor expression construct pRShGRnx [Giguére et al., Nature Vol. 330:624–629 (1987)]. The modified receptor cDNA was constructed using the site-directed mutagenesis procedure of Kunkel, T. A., Proc. Natl. Acad. Sci. USA Vol. 82:[…] (1985) to insert NotI (employing SEQ ID NO:23 as the oligonucleotide template) and XhoI (employing SEQ ID NO:24 as the oligonucleotide template) sites immediately flanking the DNA binding domain. SEQ ID NO:23 is:
# (§2) Transfection was performed with calcium-phosphate precipitation method as described previously [Umesono et al., Nature 336:262–264 (1989)]. […] Beta-galactosidase (βGal) activity was measured and a normalized amount of extract was used for CAT assay (Umesono et al. (1989) supra]. The following amount of plasmid DNA was included in the 10 cm plate transfection: 250 ng each of CMX-EcR and RSV-GEcR; 500 ng of CMX-usp; 5 μg ΔMTV-EcRE5-CTA; 5 μg of βGal internal control plasmid CH111 (a derivative of CH110, Promega). The amount of CMX plasmid was kept constant in each transfection by adding CMX-luciferase. PGEM4 was added to bring the total amount of plasmid DNA to 15 μg per plate. […]
# GEcR/usp [2] = biological target: T2, GEcR/usp (UniProt P04150+P34021, C431Y/E427R/G434N/G439E/K419E/P331L/P416R/S425G/S440G/V435A/V443G); experiment: as above; assay type: cell-based, Drosophila; details: CV1 cells cotransfected with GEcR and usp expression plasmid, EcRE reporter
# T2 construct: expressed in transfected cells; host or cells: CV1 monkey kidney cells
# T2 sequence (P04150+P34021 with tags, fused parts or gaps P04150:P416R/P04150:K419E/P04150:S425G/P04150:E427R/P04150:C431Y/P04150:G434N/P04150:V435A/P04150:G439E/P04150:S440G/P04150:V443G/P34021:P331L): T1 sequence (P04150+P34021 with tags, fused parts or gaps P04150:P416R/P04150:K419E/P04150:S425G/P04150:E427R/P04150:C431Y/P04150:G434N/P04150:V435A/P04150:G439E/P04150:S440G/P04150:V443G/P34021:P331L)
# T2 sequence (P20153 1-508 partner): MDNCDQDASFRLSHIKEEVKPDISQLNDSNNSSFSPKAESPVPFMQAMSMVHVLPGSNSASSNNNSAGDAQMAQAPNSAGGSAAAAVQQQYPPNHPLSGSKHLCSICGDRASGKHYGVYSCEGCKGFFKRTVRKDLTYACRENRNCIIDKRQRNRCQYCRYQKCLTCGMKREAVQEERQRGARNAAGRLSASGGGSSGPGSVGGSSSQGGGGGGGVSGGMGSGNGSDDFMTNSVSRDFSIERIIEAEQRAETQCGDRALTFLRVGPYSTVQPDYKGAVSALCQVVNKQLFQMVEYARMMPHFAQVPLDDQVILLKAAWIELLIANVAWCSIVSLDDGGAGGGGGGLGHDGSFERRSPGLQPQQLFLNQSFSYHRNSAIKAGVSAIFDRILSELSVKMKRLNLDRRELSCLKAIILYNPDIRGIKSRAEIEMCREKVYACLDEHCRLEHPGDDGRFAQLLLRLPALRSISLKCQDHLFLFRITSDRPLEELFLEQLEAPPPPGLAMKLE
# Excerpt: as §1, §2
substance,measurement,setting,value
20-Hydroxyecdysone [20-OH-ecdysone],ecdysone response (CAT activity),GEcR/usp [1],failed to confer ecdysone response
same,induction of CAT activity,GEcR/usp [2],8–10 fold
